Key:
Type in all cases: cell-based
Microsporum canis = assay: Antifungal activity in vitro, resazurin growth inhibition: Microsporum canis (B68128)
How it was run: (§1)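 Resazurin conversion to fluorescent resorufin (ex 550/em 590 nm) served as the growth readout. Compounds spanned 2- or 4-fold serial dilutions with 64 μM top in-test concentration; inoculum 10^3 cfu per well in MOPS-buffered RPMI-1640 (pH 7.0, 2% glucose). Incubation species-dependent, dermatophytes at 27° C. for ≥1 week.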

[1] = test system: Trichophyton mentagrophytes; assay: Antifungal activity in vitro, resazurin growth inhibition: Trichophyton mentagrophytes (B70554)
How it was run: as §1

Trichophyton rubrum = assay: Antifungal activity in vitro, resazurin growth inhibition: Trichophyton rubrum (B68183)
How it was run: as §1

Sporothrix schenkii = assay: Antifungal activity in vitro, resazurin growth inhibition: Sporothrix schenkii (B62482)
How it was run: (§2)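 Broth microdilution: RPMI-1640/L-Gln/2% glucose, MOPS pH 7.0±0.1; 10^3 cfu/well; top concentration 64 μM, 2- or 4-fold steps. Dermatophytes at 27° C., one week or more. Resazurin 0.005% (w/v) added, fluorescence 550/590 nm.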

Aspergillus fumigatus = assay: Antifungal activity in vitro, resazurin growth inhibition: Aspergillus fumigatus (B42928)
How it was run: as §2

Candida parapsilosis = assay: Antifungal activity in vitro, resazurin growth inhibition: Candida parapsilosis (B66126)
How it was run: as §2

Cryptococcus neoformans = assay: Antifungal activity in vitro, resazurin growth inhibition: Cryptococcus neoformans (B66663)
How it was run: as §2

| Inf. B: Microsporum canis B68128, pIC50 (Microsporum canis) | Inf. G: Trichophyton mentagrophytes B70554, pIC50 [1] | Inf. C: Trichophyton rubrum B68183, pIC50 (Trichophyton rubrum) | Inf. A: Sporothrix schenkii B62482, pIC50 (Sporothrix schenkii) | Inf. E: Aspergillus fumigatus B42928, pIC50 (Aspergillus fumigatus) | Inf. D: Candida parapsilosis B66126, pIC50 (Candida parapsilosis) | Inf. F: Cryptococcus neoformans B66663, pIC50 (Cryptococcus neoformans) | Structure (SMILES) |
| --- | --- | --- | --- | --- | --- | --- | --- |
| <4.19 | <4.19 | 5.64 | <4.19 | <4.19 | <4.19 | <4.19 | COc1cccc2cc(C3=NCc4ccc(Cl)cc4-n4cccc43)oc12 [Compound 142] |
| <4.19 | <4.19 | 6.11 | 5.49 | <4.19 | <4.19 | 5.20 | COc1cccc2cc(C3=NCc4cccc(Cl)c4-n4cccc43)oc12 [Compound 143] |
| 4.81 | <4.19 | 5.11 | <4.19 | <4.19 | <4.19 | <4.19 | COc1cccc2cc(C3=NCc4c(Cl)cc(Cl)cc4-n4cccc43)oc12 [Compound 145] |
| 5.66 | <4.19 | 5.35 | <4.19 | <4.19 | <4.19 | <4.19 | COc1ccc2oc(C3=NCc4ccc(Cl)cc4-n4cccc43)cc2c1 [Compound 147] |
| 5.82 | 4.19 | 5.04 | <4.19 | <4.19 | <4.19 | <4.19 | COc1ccc2oc(C3=NCc4c(Cl)cc(Cl)cc4-n4cccc43)cc2c1 [Compound 148] |
| <4.19 | <4.19 | 4.95 | <4.19 | <4.19 | <4.19 | <4.19 | Clc1ccc(Cl)c2c1CN=C(c1ccc3ccoc3c1)c1cccn1-2 [Compound 151] |
| <4.19 | <4.19 | <4.19 | <4.19 | <4.19 | 5.00 | 5.16 | Fc1cccc2c1CN=C(c1ccc3occ(Cl)c3c1)c1cccn1-2 [Compound 153] |
| <4.19 | <4.19 | <4.19 | <4.19 | <4.19 | <4.19 | <4.19 | Fc1cc(F)c2c(c1)-n1cccc1C(c1ccc3occ(Cl)c3c1)=NC2 [Compound 154] |
| 6.82 | 6.82 | 7.15 | 5.66 | 5.88 | 4.94 | 5.81 | Clc1cc2cc(C3=NCc4c(Cl)cccc4-n4cccc43)ccc2o1 [Compound 155] |
| <4.19 | 4.49 | <4.19 | <4.19 | 4.48 | <4.19 | 4.51 | Clc1cccc2c1CN=C(c1ccc3c(Cl)coc3c1)c1cccn1-2 [Compound 156] |
| 5.79 | 5.96 | 6.58 | <4.49 | <4.49 | 4.61 | <4.49 | COc1cccc2cc(C3=NCc4ccccc4-n4cccc43)oc12 [Compound 157] |
| 6.41 | <4.49 | 6.46 | <4.49 | <4.49 | <4.49 | <4.49 | Clc1cc2oc(C3=NCc4c(Cl)cccc4-n4cccc43)cc2cn1 [Compound 159] |
| 5.03 | 5.48 | 5.84 | <4.49 | 5.85 | <4.49 | 5.61 | Cc1nc(Cl)cc2cc(C3=NCc4c(Cl)cccc4-n4cccc43)oc12 [Compound 160] |
| 5.23 | 5.21 | 5.61 | 4.22 | 4.36 | <4.19 | 4.49 | Cc1nc2ccc(C3=NCc4c(Cl)cccc4-n4cccc43)cc2o1 [Compound 162] |
| 5.00 | <4.19 | 6.01 | <4.19 | <4.19 | <4.19 | <4.19 | Cc1ccc(Cl)c2c1-n1cccc1C(c1cc3ccccc3s1)=NC2 [Compound 169] |
| <4.19 | <4.19 | 5.73 | <4.19 | <4.19 | <4.19 | 6.50 | Fc1cccc2cc(C3=NCc4c(Cl)cc(Cl)cc4-n4cccc43)sc12 [Compound 171] |
| <4.19 | <4.19 | <4.19 | <4.19 | <4.19 | <4.19 | 5.73 | Clc1cccc2c1CN=C(c1ccc3scc(Cl)c3c1)c1cccn1-2 [Compound 177] |
| <4.19 | 4.26 | 4.37 | <4.19 | 5.93 | <4.19 | 6.49 | Clc1ccc2c(c1)-n1cccc1C(c1ccc3scc(Cl)c3c1)=NC2 [Compound 178] |
| 4.80 | 4.69 | 5.03 | 4.41 | 4.49 | <4.19 | 4.67 | Clc1cccc2c1-n1cccc1C(c1ccc3scc(Cl)c3c1)=NC2 [Compound 179] |
| 4.40 | 4.39 | 6.03 | <4.19 | <4.19 | <4.19 | <4.19 | Clc1cccc2c1CN=C(c1nc3ccccc3s1)c1cccn1-2 [Compound 180] |
| 5.69 | 4.98 | 5.94 | <4.19 | <4.19 | <4.19 | <4.19 | Cl.Clc1cccc2c1CN=C(c1nc3ccccc3s1)c1cccn1-2 [Compound 181] |
| 5.52 | 5.87 | 6.70 | <4.49 | 4.94 | 4.58 | 4.91 | c1ccc2c(c1)CN=C(c1ccc3ncsc3c1)c1cccn1-2 [Compound 182] |
| 5.29 | 5.52 | 6.05 | <4.19 | 5.02 | <4.19 | 5.06 | Fc1cccc2c1CN=C(c1ccc3scnc3c1)c1cccn1-2 [Compound 189] |
| 5.56 | 5.31 | 6.14 | <4.19 | <4.19 | <4.19 | 4.93 | Fc1cc(F)c2c(c1)-n1cccc1C(c1ccc3scnc3c1)=NC2 [Compound 190] |
